According to patent US20240116985A1, “STAPLED PEPTIDES AND METHODS THEREOF” (priority 2020, published 2024):
Converted amounts (≈) assume the structure as drawn. Where two headings read alike, the source gives them in different places.

How the values were obtained:
[1] = molecular target: T1, beta-catenin/TCF4 engagement (Homo sapiens, UniProt P35222); assay: Nano-BRET target engagement assay (B-cat-Halo & TCF4-Luc in HEK293 cells); format: cell-based; details: absolute IC50; read-out: NanoBRET Abs IC50
T1 construct: expressed in transfected cells; host or cells: HEK293
T1 sequence (P35222 1-781): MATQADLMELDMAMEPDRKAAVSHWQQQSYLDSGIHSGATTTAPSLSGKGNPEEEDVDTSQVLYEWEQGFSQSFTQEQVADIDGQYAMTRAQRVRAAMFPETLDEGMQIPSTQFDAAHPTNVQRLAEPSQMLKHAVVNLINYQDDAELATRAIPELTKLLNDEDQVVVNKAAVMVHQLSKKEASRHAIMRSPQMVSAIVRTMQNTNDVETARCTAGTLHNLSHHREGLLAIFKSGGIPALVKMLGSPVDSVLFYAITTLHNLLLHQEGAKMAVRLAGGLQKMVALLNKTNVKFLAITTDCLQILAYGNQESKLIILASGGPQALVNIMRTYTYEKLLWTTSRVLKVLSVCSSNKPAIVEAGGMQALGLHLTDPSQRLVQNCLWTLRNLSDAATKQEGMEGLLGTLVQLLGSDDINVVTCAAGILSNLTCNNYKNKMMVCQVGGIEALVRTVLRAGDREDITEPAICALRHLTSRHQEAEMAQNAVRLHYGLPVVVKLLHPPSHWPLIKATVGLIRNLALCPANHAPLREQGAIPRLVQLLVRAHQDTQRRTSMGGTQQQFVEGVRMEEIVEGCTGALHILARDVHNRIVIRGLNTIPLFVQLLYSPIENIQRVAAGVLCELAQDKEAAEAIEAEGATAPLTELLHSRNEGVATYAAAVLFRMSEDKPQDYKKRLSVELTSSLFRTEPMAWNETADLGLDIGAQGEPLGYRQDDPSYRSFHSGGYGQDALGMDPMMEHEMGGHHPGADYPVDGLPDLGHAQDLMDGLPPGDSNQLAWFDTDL

Solubility in PBS = format: physicochemical
Outline: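 Read-out is the HPLC peak area of the supernatant from ultracentrifuged PBS solution, scaled against a 50 μM peptide DMSO injection; value reported as [(PBS area)/(DMSO area)]*50 uM.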

[2] = molecular target: T2, full-length beta-Catenin (Uniprot ID P35222) (Homo sapiens, UniProt P35222); assay: Fluorescence polarization IC50 (beta-catenin / 5FAM-TCF4 10-53 competition); format: binding; details: fluorescence polarization; read-out: beta-Catenin FP IC50
T2 construct: 10 nM full-length beta-Catenin (Uniprot ID P35222)
T2 sequence (P35222 1-781): T1 sequence (P35222 1-781)

Row | SMILES | IC50 [1] | Solubility (Solubility in PBS; Solubility (uM)) | IC50 [2] | Solubility (Solubility in PBS)
1 | CC(=O)N1CCC[C@]12CC=CCCCC1(CCCC=CCCCCCC[C@@](C)(C(=O)N[C@@H](Cc3ccsc3)C(=O)N[C@@H](Cc3csc4ccccc34)C(=O)N[C@@H](CCC(N)=O)C(N)=O)NC(=O)[C@H](CC(C)C)NC(=O)[C@H](Cc3ccccc3)NC(=O)[C@H](C)NC(=O)[C@H](C)NC(=O)[C@H](CC(=O)O)NC(=O)[C@H](CC(=O)O)NC1=O)NC(=O)[C@H](CC(C)(C)C)NC(=O)[C@H](CC(=O)O)NC2=O (stereo partly drawn) [I-1188, Ac-PL3-Asp-Npg-B5-Asp-Asp-Ala-Ala-Phe-Leu-S8-3Thi-BztA-Gln-NH2] | 7.2 µM | 18 µM (≈ 33.7 µg/mL) | 22.5 nM | –
2 | CC(=O)N1CCC[C@]12CC=CCCCC1(CCCC=CCCCCCC[C@@](C)(C(=O)N[C@@H](Cc3ccsc3)C(=O)N[C@@H](Cc3csc4ccccc34)C(=O)N[C@@H](Cc3c[nH]cn3)C(N)=O)NC(=O)[C@H](CC(C)C)NC(=O)[C@H](Cc3ccccc3)NC(=O)[C@H](C)NC(=O)[C@H](C)NC(=O)[C@H](CC(=O)O)NC(=O)[C@H](CC(=O)O)NC1=O)NC(=O)[C@H](CC(C)(C)C)NC(=O)[C@H](CC(=O)O)NC2=O (stereo partly drawn) [I-1195, Ac-PL3-Asp-Npg-B5-Asp-Asp-Ala-Ala-Phe-Leu-S8-3Thi-BztA-His-NH2] | 16.2 µM | – | 29.5 nM | 10 µM (≈ 18.8 µg/mL)
3 | CC(=O)N1CCC[C@]12CC=CCCCC1(CCCC=CCCCOC(=O)N3CC[C@@](C(=O)N[C@@H](Cc4ccsc4)C(=O)N[C@@H](Cc4csc5ccccc45)C(=O)N[C@@H](CCC(N)=O)C(N)=O)(C3)NC(=O)[C@H](CC(C)C)NC(=O)[C@H](Cc3ccccc3C#N)NC(=O)[C@H](C)NC(=O)[C@H](C)NC(=O)[C@H](CC(=O)O)NC(=O)[C@H](CC(=O)O)NC1=O)NC(=O)[C@H](CC(C)(C)C)NC(=O)[C@H](CC(=O)O)NC2=O (stereo partly drawn) [I-1200, Ac-PL3-Asp-Npg-B5-Asp-Asp-Ala-Ala-2CNF-Leu-PyrS2-3Thi-BztA-Gln-NH2] | > 20 µM | 48 µM (≈ 93.2 µg/mL) | 99 nM | –
4 | CC(=O)N1CCC[C@]12CC=CCCCC1(CCCC=CCCCOC(=O)N3CC[C@@](C(=O)N[C@@H](Cc4ccsc4)C(=O)N[C@@H](Cc4csc5ccccc45)C(=O)N[C@@H](CCC(N)=O)C(N)=O)(C3)NC(=O)[C@H](CC(C)C)NC(=O)[C@H](Cc3cccc(C#N)c3)NC(=O)[C@H](C)NC(=O)[C@H](C)NC(=O)[C@H](CC(=O)O)NC(=O)[C@H](CC(=O)O)NC1=O)NC(=O)[C@H](CC(C)(C)C)NC(=O)[C@H](CC(=O)O)NC2=O (stereo partly drawn) [I-1201, Ac-PL3-Asp-Npg-B5-Asp-Asp-Ala-Ala-3CNF-Leu-PyrS2-3Thi-BztA-Gln-NH2] | 19.6 µM | 47 µM (≈ 91.3 µg/mL) | 13 nM | –
5 | CC(=O)N1CCC[C@]12CC=CCCCC1(CCCC=CCCCOC(=O)N3CC[C@@](C(=O)N[C@@H](Cc4ccsc4)C(=O)N[C@@H](Cc4csc5ccccc45)C(=O)N[C@@H](CCC(N)=O)C(N)=O)(C3)NC(=O)[C@H](CC(C)C)NC(=O)[C@H](Cc3ccc(C#N)cc3)NC(=O)[C@H](C)NC(=O)[C@H](C)NC(=O)[C@H](CC(=O)O)NC(=O)[C@H](CC(=O)O)NC1=O)NC(=O)[C@H](CC(C)(C)C)NC(=O)[C@H](CC(=O)O)NC2=O (stereo partly drawn) [I-1202, Ac-PL3-Asp-Npg-B5-Asp-Asp-Ala-Ala-4CNF-Leu-PyrS2-3Thi-BztA-Gln-NH2] | 16.3 µM | – | 16 nM | 50 µM (≈ 97.1 µg/mL)
6 | CC(=O)N1CCC[C@]12CC=CCCCC1(CCCC=CCCCOC(=O)N3CC[C@@](C(=O)N[C@@H](Cc4ccsc4)C(=O)N[C@@H](Cc4csc5ccccc45)C(=O)N[C@@H](CCC(N)=O)C(N)=O)(C3)NC(=O)[C@H](CC(N)=O)NC(=O)[C@H](Cc3ccccc3)NC(=O)[C@H](C)NC(=O)[C@H](C)NC(=O)[C@H](CC(=O)O)NC(=O)[C@H](CC(N)=O)NC1=O)NC(=O)[C@H](CC(C)(C)C)NC(=O)[C@H](CC(=O)O)NC2=O (stereo partly drawn) [I-1206, Ac-PL3-Asp-Npg-B5-Asn-Asp-Ala-Ala-Phe-Asn-PyrS2-3Thi-BztA-Gln-NH2] | 27.8 µM | – | 32 nM | 50 µM (≈ 95.9 µg/mL)

Other lines, results leading:

Row | IC50 [1] | Solubility (Solubility in PBS; Solubility (uM)) | IC50 [2] | Solubility (Solubility in PBS) | SMILES
7 | 26.9 µM | 33 µM (≈ 66 µg/mL) | 203 nM | – | CC(=O)N1CCC[C@]12CC=CCCCC1(CCCC=CCCCOC(=O)N3CC[C@@](C(=O)N[C@@H](Cc4c(F)c(F)c(F)c(F)c4F)C(=O)N[C@@H](Cc4csc5ccccc45)C(=O)N[C@@H](CCC(N)=O)C(N)=O)(C3)NC(=O)[C@H](CC(C)C)NC(=O)[C@H](Cc3ccccc3)NC(=O)[C@H](C)NC(=O)[C@H](C)NC(=O)[C@H](CC(=O)O)NC(=O)[C@H](CC(=O)O)NC1=O)NC(=O)[C@H](CC(C)(C)C)NC(=O)[C@H](CC(=O)O)NC2=O (stereo partly drawn) [I-1185, Ac-PL3-Asp-Npg-B5-Asp-Asp-Ala-Ala-Phe-Leu-PyrS2-Pff-BztA-Gln-NH2]
8 | 23.6 µM | 46 µM (≈ 92.1 µg/mL) | 128 nM | – | CC(=O)N1CCC[C@]12CC=CCCCC1(CCCC=CCCCOC(=O)N3CC[C@@](C(=O)N[C@@H](Cc4c(F)c(F)c(F)c(F)c4F)C(=O)N[C@@H](Cc4csc5ccccc45)C(=O)N[C@@H](CCC(N)=O)C(N)=O)(C3)NC(=O)[C@H](CC(N)=O)NC(=O)[C@H](Cc3ccccc3)NC(=O)[C@H](C)NC(=O)[C@H](C)NC(=O)[C@H](CC(=O)O)NC(=O)[C@H](CC(=O)O)NC1=O)NC(=O)[C@H](CC(C)(C)C)NC(=O)[C@H](CC(=O)O)NC2=O (stereo partly drawn) [I-1186, Ac-PL3-Asp-Npg-B5-Asp-Asp-Ala-Ala-Phe-Asn-PyrS2-Pff-BztA-Gln-NH2]
9 | 28.6 µM | 42 µM (≈ 82.9 µg/mL) | 80.5 nM | – | CC(=O)N1CCC[C@]12CC=CCCCC1(CCCC=CCCCOC(=O)N3CC[C@@](C(=O)N[C@@H](Cc4c(F)c(F)c(F)c(F)c4F)C(=O)N[C@@H](Cc4csc5ccccc45)C(=O)N[C@@H](CO)C(N)=O)(C3)NC(=O)[C@H]([C@@H](C)O)NC(=O)[C@H](Cc3ccccc3)NC(=O)[C@H](C)NC(=O)[C@H](C)NC(=O)[C@H](CC(=O)O)NC(=O)[C@H](CC(=O)O)NC1=O)NC(=O)[C@H](CC1CCCCC1)NC(=O)[C@H](CC(=O)O)NC2=O (stereo partly drawn) [I-1187, Ac-PL3-Asp-Cha-B5-Asp-Asp-Ala-Ala-Phe-Thr-PyrS2-Pff-BztA-Ser-NH2]
10 | 10 µM | – | 16 nM | 50 µM (≈ 96.8 µg/mL) | CC(=O)N1CCC[C@]12CC=CCCCC1(CCCC=CCCCOC(=O)N3CC[C@@](C(=O)N[C@@H](Cc4ccccc4C#N)C(=O)N[C@@H](Cc4csc5ccccc45)C(=O)N[C@@H](CCC(N)=O)C(N)=O)(C3)NC(=O)[C@H](CC(C)C)NC(=O)[C@H](Cc3ccccc3)NC(=O)[C@H](C)NC(=O)[C@H](C)NC(=O)[C@H](CC(=O)O)NC(=O)[C@H](CC(=O)O)NC1=O)NC(=O)[C@H](CC(C)(C)C)NC(=O)[C@H](CC(=O)O)NC2=O (stereo partly drawn) [I-1203, Ac-PL3-Asp-Npg-B5-Asp-Asp-Ala-Ala-Phe-Leu-PyrS2-2CNF-BztA-Gln-NH2]
11 | 7.5 µM | 11 µM (≈ 21.1 µg/mL) | 40 nM | – | CC(=O)N1CCC[C@]12CC=CCCCC1(CCCC=CCCCOC(=O)N3CC[C@@](C(=O)N[C@@H](Cc4ccsc4)C(=O)N[C@@H](Cc4csc5ccccc45)C(=O)N[C@@H](CCC(N)=O)C(N)=O)(C3)NC(=O)[C@H](CC(C)C)NC(=O)[C@H](Cc3ccccc3)NC(=O)[C@H](C)NC(=O)[C@H](C)NC(=O)[C@H](CC(=O)O)NC(=O)[C@H](CC(N)=O)NC1=O)NC(=O)[C@H](CC(C)(C)C)NC(=O)[C@H](CC(=O)O)NC2=O (stereo partly drawn) [I-1207, Ac-PL3-Asp-Npg-B5-Asn-Asp-Ala-Ala-Phe-Leu-PyrS2-3Thi-BztA-Gln-NH2]
